In patent publication US9532554B2, “Method for inducing hepatocellular variation, and production method for chimeric non-human animal having humanized liver” (PUBLIC UNIVERSITY CORPORATION YOKOHAMA CITY UNIVERSITY, priority 2011, dated 2017):

Target: T1, human CYP2D6 (Homo sapiens, UniProt P10635)
T1 construct: from tissue; host or cells: humanized liver of chimeric mice (transplanted human hepatic cells), in vivo
Assay: Debrisoquine metabolism to 4-OHDB in chimeric mice
Type: in vivo
Conditions: debrisoquine 2.0 mg/kg orally, chimera group vs sham-operated group
Method: Debrisoquine, which serves as a common phenotyping agent for human CYP2D6, is metabolized to 4-hydroxydebrisoquine (4-OHDB) in humans but is negligible in mice.
Debrisoquine was orally administered at a dose of 2.0 mg/kg. The data was obtained 8 hours after the oral administration and is indicated by the mean±SD.

T1 sequence (P10635 whole entry): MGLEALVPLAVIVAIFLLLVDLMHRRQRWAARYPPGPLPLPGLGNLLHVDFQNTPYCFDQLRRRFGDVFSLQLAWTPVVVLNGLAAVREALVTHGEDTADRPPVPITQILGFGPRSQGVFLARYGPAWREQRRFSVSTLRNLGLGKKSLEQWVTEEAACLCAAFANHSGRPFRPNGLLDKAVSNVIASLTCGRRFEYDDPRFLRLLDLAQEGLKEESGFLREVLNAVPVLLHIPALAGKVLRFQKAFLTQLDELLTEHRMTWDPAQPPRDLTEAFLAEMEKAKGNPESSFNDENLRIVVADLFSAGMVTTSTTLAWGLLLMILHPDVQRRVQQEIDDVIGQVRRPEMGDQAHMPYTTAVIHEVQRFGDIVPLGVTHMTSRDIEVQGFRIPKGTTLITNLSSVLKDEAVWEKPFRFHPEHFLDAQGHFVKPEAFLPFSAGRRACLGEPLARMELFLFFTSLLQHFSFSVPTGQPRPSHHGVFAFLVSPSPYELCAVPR

SMILES: N=C(N)N1CCc2ccccc2C1 [debrisoquine, Debrisoquine]
- plasma concentration of 4-OHDB following oral administration of debrisoquine: higher in the chimera group than in the sham-operated group
